Among the test systems are MDA-N; SK-OV-3 ovarian; T-47D breast; HCT-15 colon; SW-620 colon; A549 NSCLC; MOLT-4 leukemia; RXF 393 renal; COLO 205 colon; SNB-75 CNS.
Assay in all cases: NCI tumour cell line growth inhibition, 48 h

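Step 1: Grow cells in 96-well plates. Step 2: Expose to compound for 48 hours at 5 concentrations. Step 3: Interpolate endpoints linearly; if unreached, use highest concentration. TGI denotes the concentration required for complete inhibition of growth.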

As for `CCCC(=O)NC1=C(NCC)C(=O)c2ccccc2C1=O`, the TGI was 63.2 µM with MDA-N; above 100 µM in the assay with SK-OV-3 ovarian; above 100 µM in the assay on T-47D breast; above 100 µM in the assay on HCT-15 colon; above 100 µM in the assay on SW-620 colon; above 100 µM in the assay with A549 NSCLC. The TGI with MOLT-4 leukemia, in the assay with RXF 393 renal, in the assay with COLO 205 colon and in the assay with SNB-75 CNS was above 100 µM in each case.
As to `O=C(N=S(NC(=O)c1ccccc1)C(Cl)(Cl)Cl)c1ccccc1` (stereo not given), the TGI in the assay on MDA-N was above 100 µM; in the assay with SK-OV-3 ovarian, above 31.6 µM; in the assay on T-47D breast, 67.5 µM; in the assay on HCT-15 colon, 27 µM; in the assay with SW-620 colon, 15.9 µM; in the assay with A549 NSCLC, above 100 µM. Further, the TGI in the assay with MOLT-4 leukemia is 30.7 µM; in the assay on RXF 393 renal, 18 µM; with COLO 205 colon, 29.4 µM; with SNB-75 CNS it was above 100 µM.
Take `CSc1nc(N)c(NC2OC(CO)C(O)C2O)c(=O)[nH]1` (stereo not given): the TGI in the assay with MDA-N, with SK-OV-3 ovarian, in the assay with T-47D breast, in the assay with HCT-15 colon, in the assay on SW-620 colon and in the assay on A549 NSCLC was above 100 µM each time. For the same molecule, the TGI in the assay with MOLT-4 leukemia, in the assay with RXF 393 renal, with COLO 205 colon and in the assay on SNB-75 CNS was above 100 µM each time.
Turning to `CCC(NC(C)c1ccccc1)C(O)c1ccc(OCc2ccccc2)c(OCc2ccccc2)c1` (stereo not given), the TGI was determined as 30.3 µM in the assay with MDA-N; 32.4 µM in the assay on SK-OV-3 ovarian; 40.1 µM in the assay with T-47D breast; 29.9 µM in the assay with HCT-15 colon; 20.3 µM in the assay with SW-620 colon; 29.8 µM with A549 NSCLC. The TGI was 33.4 µM in the assay on MOLT-4 leukemia, 23 µM in the assay with RXF 393 renal, 3.88 µM with COLO 205 colon and 23.2 µM in the assay on SNB-75 CNS.
Regarding `C=CCOC(=O)/C(=C\c1ccc(OC)c(OC)c1)c1ccc(OC)c(OC)c1`, the TGI with MDA-N was above 100 µM; with SK-OV-3 ovarian it was above 100 µM; in the assay with T-47D breast, 98.4 µM; in the assay on HCT-15 colon, above 100 µM; with SW-620 colon, above 100 µM; with A549 NSCLC, above 100 µM. For the same molecule, the TGI with MOLT-4 leukemia is 49.5 µM; in the assay with RXF 393 renal it was 99.5 µM; with COLO 205 colon, above 100 µM; in the assay with SNB-75 CNS, 36.3 µM.
Regarding `COC(=O)c1ccc2c(O)c(O)ccc2c1`, the TGI with MDA-N is 3.29 µM; in the assay on SK-OV-3 ovarian, 38.7 µM; with T-47D breast, 42.6 µM; in the assay with HCT-15 colon, 27.8 µM; with SW-620 colon it was 25.3 µM; with A549 NSCLC, 42 µM. Further, the TGI in the assay on MOLT-4 leukemia was found to be 13.7 µM; with RXF 393 renal, 31.4 µM; in the assay with COLO 205 colon it was 26.7 µM; in the assay on SNB-75 CNS it was 25.4 µM.
Regarding `CC1=C2C(=O)c3ccccc3C(=O)[C@H]2[C@H]2CCO[C@H]2O1`, the TGI in the assay with MDA-N is 36.6 µM; in the assay on SK-OV-3 ovarian, above 100 µM; with T-47D breast, above 100 µM; in the assay on HCT-15 colon, 86 µM; in the assay on SW-620 colon, 53.1 µM; with A549 NSCLC, above 100 µM. In addition, the TGI is above 100 µM in the assay with MOLT-4 leukemia, 31.3 µM in the assay on RXF 393 renal, above 100 µM in the assay with COLO 205 colon and 43 µM in the assay with SNB-75 CNS.
On to `Cc1cc(=O)[nH]c(NN2C(Cl)C(=O)C2c2ccc(Cl)cc2)n1` (stereo not given), for which the TGI is 72.6 µM in the assay with MDA-N; above 100 µM in the assay with SK-OV-3 ovarian; 43.4 µM in the assay on T-47D breast; above 53.8 µM in the assay with HCT-15 colon; above 71.7 µM in the assay on SW-620 colon; above 64.8 µM in the assay with A549 NSCLC. The TGI in the assay with MOLT-4 leukemia was 22.7 µM; in the assay on RXF 393 renal, 45.1 µM; with COLO 205 colon, 36.2 µM; in the assay on SNB-75 CNS, 42.5 µM.
As to `O=C(O[C@H]1[C@@H](O)[C@H](n2cnc3c(Cl)ncnc32)O[C@@H]1COC(c1ccccc1)(c1ccccc1)c1ccccc1)c1ccccc1`, the TGI is above 100 µM in the assay on MDA-N; above 100 µM with SK-OV-3 ovarian; 24.9 µM in the assay with T-47D breast; above 100 µM in the assay with HCT-15 colon; above 100 µM in the assay on SW-620 colon; above 100 µM in the assay with A549 NSCLC. For the same molecule, the TGI in the assay on MOLT-4 leukemia was 17.9 µM; in the assay on RXF 393 renal it was 48.1 µM; in the assay with COLO 205 colon it was 29.3 µM; with SNB-75 CNS, above 100 µM.
As for `O=C(c1ccccc1)c1ccc(COc2ccc(C(c3c(O)c4ccccc4oc3=O)c3c(O)c4ccccc4oc3=O)cc2)cc1`, the TGI in the assay with MDA-N was 62 µM; in the assay on SK-OV-3 ovarian it was 35.4 µM; in the assay with T-47D breast it was 57.6 µM; with HCT-15 colon, above 100 µM; in the assay on SW-620 colon it was 80.4 µM; in the assay on A549 NSCLC, 65.2 µM. The TGI is 45.4 µM in the assay with MOLT-4 leukemia, 44.5 µM in the assay on RXF 393 renal, 39.2 µM in the assay on COLO 205 colon and 32.7 µM in the assay on SNB-75 CNS.
As to `COc1ccc(NC2Oc3cc4c(cc3C(c3cccc(OC)c3OC)C2C)OCO4)cc1` (stereo not given), the TGI in the assay with MDA-N, with SK-OV-3 ovarian, in the assay on T-47D breast, with HCT-15 colon, in the assay with SW-620 colon and with A549 NSCLC was above 100 µM each time. The TGI is 35.9 µM in the assay on MOLT-4 leukemia, 50.2 µM with RXF 393 renal, 19.2 µM with COLO 205 colon and above 100 µM in the assay with SNB-75 CNS.
For the molecule `CCCN(C(=O)c1c(Cl)nnc(Cl)c1C(=O)c1cc(Cl)nnc1Cl)c1cc(Cl)nnc1Cl`, the TGI with MDA-N was 30 µM; in the assay with SK-OV-3 ovarian it was above 100 µM; with T-47D breast, 23 µM; in the assay with HCT-15 colon, 18.5 µM; in the assay with SW-620 colon it was 25.5 µM; with A549 NSCLC, above 100 µM. In addition, the TGI worked out at 12.5 µM in the assay with MOLT-4 leukemia, 8.49 µM in the assay with RXF 393 renal, 18.6 µM with COLO 205 colon and 32.5 µM in the assay with SNB-75 CNS.
As to `C#CCOCC12C=CC(O1)C1C(=O)N(C)C(=O)C12` (stereo not given), the TGI with MDA-N, in the assay with SK-OV-3 ovarian, in the assay on T-47D breast, in the assay with HCT-15 colon, with SW-620 colon and with A549 NSCLC was above 100 µM in each case. The TGI in the assay with MOLT-4 leukemia, in the assay with RXF 393 renal, with COLO 205 colon and in the assay on SNB-75 CNS was above 100 µM in each case.
`COc1nc(N)c(NC2OC(CO)C(O)C2O)c(=O)[nH]1` (stereo not given): the TGI with MDA-N, in the assay on SK-OV-3 ovarian, in the assay with T-47D breast, in the assay with HCT-15 colon, in the assay with SW-620 colon and with A549 NSCLC was above 100 µM each time. The TGI with MOLT-4 leukemia, with RXF 393 renal, with COLO 205 colon and in the assay with SNB-75 CNS was above 100 µM throughout.
`C=Cc1c(C)c(OC)cc2c1Oc1ccc(OC)c(C)c1CC2`: the TGI in the assay with MDA-N, in the assay on SK-OV-3 ovarian, in the assay on T-47D breast, in the assay on HCT-15 colon, in the assay on SW-620 colon and in the assay on A549 NSCLC was above 100 µM throughout. Moreover, the TGI with MOLT-4 leukemia, in the assay on RXF 393 renal, in the assay on COLO 205 colon and in the assay with SNB-75 CNS was above 100 µM each time.
For the molecule `O=C(NNC1=NCCN1)c1ccco1`, the TGI with MDA-N, with SK-OV-3 ovarian, in the assay with T-47D breast, in the assay on HCT-15 colon, in the assay on SW-620 colon and in the assay on A549 NSCLC was above 100 µM each time. Further, the TGI in the assay with MOLT-4 leukemia, in the assay on RXF 393 renal, in the assay with COLO 205 colon and in the assay on SNB-75 CNS was above 100 µM throughout.
`Fc1ccc2nc3n(c2c1)C(c1c(F)cccc1F)SC3` (stereo not given): the TGI was 85.3 µM with MDA-N; above 100 µM with SK-OV-3 ovarian; above 100 µM in the assay on T-47D breast; above 100 µM with HCT-15 colon; above 100 µM in the assay on SW-620 colon; above 100 µM in the assay on A549 NSCLC. For the same molecule, the TGI in the assay on MOLT-4 leukemia, with RXF 393 renal, in the assay with COLO 205 colon and with SNB-75 CNS was above 100 µM in each case.
Take `O=C(NCCCCCCCCNC(=O)c1cc(-c2ccccc2)nc2ccccc12)c1cc(-c2ccccc2)nc2ccccc12`: the TGI in the assay with MDA-N, in the assay on SK-OV-3 ovarian, in the assay on T-47D breast, in the assay with HCT-15 colon, in the assay on SW-620 colon and in the assay with A549 NSCLC was above 100 µM in each case. In addition, the TGI in the assay with MOLT-4 leukemia is above 100 µM; in the assay with RXF 393 renal it was 84.4 µM; with COLO 205 colon, above 100 µM; in the assay on SNB-75 CNS, above 100 µM.
Take `CCOC(=O)c1sc2c(c1OC(=O)c1cccs1)c(=O)n(-c1ccccc1)c(=S)n2-c1ccccc1`: the TGI in the assay on MDA-N was above 100 µM; in the assay on SK-OV-3 ovarian, 42.9 µM; with T-47D breast it was above 100 µM; in the assay on HCT-15 colon, 43.4 µM; in the assay on SW-620 colon it was 65.5 µM; with A549 NSCLC it was 38.8 µM. Further, the TGI in the assay with MOLT-4 leukemia is 40 µM; in the assay on RXF 393 renal, 89.8 µM; in the assay on COLO 205 colon, 35.6 µM; in the assay on SNB-75 CNS, above 100 µM.
For the molecule `CN(C(=O)Cc1cc(Cl)c(Cl)cc1N=C=S)[C@H]1CCCC[C@@H]1N1CCCC1`, the TGI with MDA-N turned out to be 28.1 µM; with SK-OV-3 ovarian, 32.3 µM; in the assay on T-47D breast it was 37.4 µM; in the assay on HCT-15 colon it was 29.1 µM; in the assay with SW-620 colon it was 23.6 µM; in the assay with A549 NSCLC it was 30.6 µM. For the same molecule, the TGI worked out at 14.2 µM in the assay with MOLT-4 leukemia, 13.1 µM in the assay with RXF 393 renal, 26.8 µM in the assay on COLO 205 colon and 27.9 µM in the assay with SNB-75 CNS.
Turning to `Cc1n[nH]c(=O)c2cc(-c3ccccc3)[nH]c12`, the TGI with MDA-N, with SK-OV-3 ovarian, with T-47D breast, in the assay with HCT-15 colon, with SW-620 colon and in the assay with A549 NSCLC was above 100 µM throughout. For the same molecule, the TGI in the assay with MOLT-4 leukemia was above 100 µM; in the assay on RXF 393 renal, above 100 µM; in the assay on COLO 205 colon it was 71 µM; with SNB-75 CNS, above 100 µM.

These data come from PubChem BioAssay (NCI).
